Reference: ChEMBL document CHEMBL1201862, “PubChem BioAssay data set” (2004)
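The compound was tested at five concentrations on cells cultured in 96-well plates, with a 48-hour exposure period. At the GI50, growth is halved.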 Activity calls are given as the source filed them. Rule as the data show it: active = GI50 up to about 1.1 µM and inactive = higher.

Key:
Assay in all cases: growth of human tumour cells (NCI), 48 h
A498 = system: A498
DLD-1 = system: DLD-1
HCT-15 = system: HCT-15
HOP-62 = system: HOP-62
KM12 = system: KM12
M14 = system: M14
NCI-H226 = system: NCI-H226
NCI-H460 = system: NCI-H460
OVCAR-8 = system: OVCAR-8
RPMI-8226 = system: RPMI-8226
RXF 393 = system: RXF 393
SF-268 = system: SF-268
SK-MEL-5 = system: SK-MEL-5
SNB-75 = system: SNB-75
UO-31 = system: UO-31
HL-60 = system: HL-60
MDA-MB-435 = system: MDA-MB-435
NCI/ADR-RES = system: NCI/ADR-RES
SR = system: SR
T47D = system: T47D

SMILES	GI50 (A498)	GI50 (DLD-1)	GI50 (HCT-15) [µM]	GI50 (HOP-62)	GI50 (KM12)	GI50 (M14)	GI50 (NCI-H226)	GI50 (NCI-H460)	GI50 (OVCAR-8)	GI50 (RPMI-8226)	GI50 (RXF 393)	GI50 (SF-268)	GI50 (SK-MEL-5)	GI50 (SNB-75)	GI50 (UO-31)	GI50 (HL-60)	GI50 (MDA-MB-435)	GI50 (NCI/ADR-RES)	GI50 (SR)	GI50 (T47D)
Cc1ccc(NC(=O)CSc2nnc(Cc3ccccc3)o2)cc1	> 100 µM (inactive)	> 100 µM (inactive)	> 100	> 100 µM (inactive)	> 100 µM (inactive)	> 100 µM (inactive)	> 100 µM (inactive)	> 100 µM (inactive)	97.9 µM (inactive)	> 100 µM (inactive)	> 100 µM (inactive)	> 100 µM (inactive)	> 100 µM (inactive)	> 100 µM (inactive)	> 100 µM (inactive)					
Cc1ccc(S(=O)(=O)NC(C)C(=O)O)cc1 (stereo not drawn)	> 100 µM (inactive)	> 100 µM (inactive)	> 100		> 100 µM (inactive)	> 100 µM (inactive)	> 100 µM (inactive)	> 100 µM (inactive)	> 100 µM (inactive)	> 100 µM (inactive)	> 100 µM (inactive)	> 100 µM (inactive)	> 100 µM (inactive)	> 100 µM (inactive)	> 100 µM (inactive)	> 100 µM (inactive)				
COc1cc2ccc3c4cc(OC)c(OCc5ccccc5)cc4cnc3c2cc1OC	> 100 µM (inactive)	> 100 µM (inactive)		> 100 µM (inactive)	> 100 µM (inactive)	> 100 µM (inactive)		> 100 µM (inactive)	> 100 µM (inactive)	61.9 µM (inactive)		> 100 µM (inactive)	> 100 µM (inactive)	> 100 µM (inactive)	70 µM (inactive)					
COc1cc(OC)cc(Oc2nc3ccccc3nc2C(F)(F)F)c1	22.9 µM (inactive)		51.4	19.3 µM (inactive)	> 100 µM (inactive)	53.8 µM (inactive)	> 100 µM (inactive)	> 100 µM (inactive)	> 100 µM (inactive)	> 100 µM (inactive)	19.5 µM (inactive)	68.4 µM (inactive)	76.7 µM (inactive)	21.9 µM (inactive)	> 100 µM (inactive)	22.3 µM (inactive)	3.41 µM (inactive)	> 100 µM (inactive)	6.1 µM (inactive)	> 100 µM (inactive)
Nc1ccc(-c2cc(C(=O)Nc3nccs3)nc(S)n2)cc1	> 100 µM (inactive)	> 100 µM (inactive)	> 100		> 100 µM (inactive)	> 100 µM (inactive)	> 100 µM (inactive)		> 100 µM (inactive)	> 100 µM (inactive)	> 100 µM (inactive)	> 100 µM (inactive)	> 100 µM (inactive)	> 100 µM (inactive)	> 100 µM (inactive)					
CCCC(=O)NC(Nc1ccc(S(=O)(=O)Nc2nc(C)cc(C)n2)cc1)(C(F)(F)F)C(F)(F)F	> 100 µM (inactive)		> 100	> 100 µM (inactive)	> 100 µM (inactive)	> 100 µM (inactive)	> 100 µM (inactive)	> 100 µM (inactive)	> 100 µM (inactive)	> 100 µM (inactive)	> 100 µM (inactive)	> 100 µM (inactive)	> 100 µM (inactive)	> 100 µM (inactive)	> 100 µM (inactive)	> 100 µM (inactive)	> 100 µM (inactive)	> 100 µM (inactive)	> 100 µM (inactive)	> 100 µM (inactive)
Cn1c(N)[n+](C(=O)OCc2ccccc2)c(=O)c2c1ncn2C(=O)OCc1ccccc1	30.8 µM (inactive)	95.1 µM (inactive)	> 100	27 µM (inactive)	> 100 µM (inactive)	50.9 µM (inactive)	18 µM (inactive)	> 100 µM (inactive)	> 100 µM (inactive)	> 100 µM (inactive)		28.1 µM (inactive)	> 100 µM (inactive)	24 µM (inactive)	14.4 µM (inactive)	> 100 µM (inactive)				
